These are literature values, as cited in patent US8134031B2, “Extraction process for aldehyde product separation and catalyst recovery” (Dow Global Technologies LLC, priority 2007, dated 2012).

Molecules are shown by their SMILES. Counter-ions that a name gives are not always drawn. Like-named read-outs stand apart in the source and are kept apart here.

Setting [1] is: 25° C., experimental value (Yaw's Handbook).
Where [2] appears, read: 25° C., estimated value (Yaw's Handbook).
[3] abbreviates: 22° C., experimental value (Yaw's Handbook).

As for `CCCCCCC=O` [1-Heptanal], the Solubility in water under setting [1] is reported as 1516 ppmw.

Turning to `C=CCCCCCC` [1-Octene], where the note is “25° C.”, the H2O solubility is recorded as 4.10 ppm. Under setting [1], the Solubility in water is given as 4.10 ppmw.

Consider `CCCCCO` [1-Pentanol], for which the Solubility in water under setting [1] is 22000 ppmw. Consider `CCCCC(C)=O` [2-Hexanone], for which the Solubility in water under setting [1] is 16400 ppmw.

As for `CCC(C)CO` (stereo not drawn) [2-Methyl-1-butanol], under setting [1], the Solubility in water is 30000 ppmw. In the case of `CCC(O)C(C)C` (stereo not drawn) [2-Methyl-3-pentanol], under setting [2], the Solubility in water is reported as 25882 ppmw. As to `CCC(C)C=O` (stereo not drawn) [2-Methylbutanal], the Solubility in water under setting [2] is 28212 ppmw. On to `CCCC(C)O` (stereo not drawn) [2-Pentanol], for which the Solubility in water under setting [1] is given as 45000 ppmw.

For the molecule `CCCC(=O)CC` [3-Hexanone], the Solubility in water under setting [1] is 14700 ppmw.

As for `CC(C)CCO` [3-Methyl-1-butanol], the Solubility in water under setting [1] was 27000 ppmw.

`CC(C)C(C)O` (stereo not drawn) [3-Methyl-2-butanol]: the Solubility in water under setting [1] is recorded as 56000 ppmw. With `CC(C)CC=O` [3-Methylbutanal], the Solubility in water under setting [2] is reported as 27392 ppmw. As for `CCC(O)CC` [3-Pentanol], the Solubility in water under setting [1] is recorded as 52000 ppmw.

For `O=C1CCCCC1` [Cyclohexanone], the Solubility in water under setting [1] is recorded as 93190 ppmw. With `CCC(=O)CC` [Diethyl ketone], the Solubility in water under setting [1] is 34000 ppmw. `CC(C)OC(C)C` [Diisopropyl ether]: the Solubility in water under setting [1] is on record as 11250 ppmw.

Regarding `CCOC(C)=O` [Ethyl acetate], under setting [1], the Solubility in water is listed as 73720 ppmw.

Consider `CCCC(=O)OCC` [Ethyl butyrate], for which, under setting [3], the Solubility in water is given as 6168 ppmw.

Take `CCC(=O)C(C)C` [Ethyl isopropyl ketone]: under setting [2], the Solubility in water is reported as 22865 ppmw.

As to `CCOC(=O)CC` [Ethyl propanoate], the Solubility in water under setting [1] is reported as 22000 ppmw.

With `CCCCCCC` [Heptane], the H2O solubility (25° C.) is reported as 2.24 ppmw. In addition, the Solubility in water under setting [1] is on record as 2.24 ppmw. `CCCCCC` [Hexane]: the H2O solubility (25° C.) is reported as 13.3 ppmw. For the same molecule, the Solubility in water under setting [1] is on record as 13.3 ppmw. As for `CC(=O)OC(C)C` [Isopropyl acetate], the Solubility in water under setting [1] is listed as 29000 ppmw. Consider `CCCC(=O)OC` [Methyl butyrate], for which the Solubility in water under setting [1] is 15000 ppmw. For `C=C(C)C(C)=O` [Methyl isopropenyl ketone], the Solubility in water under setting [1] is 47000 ppmw. Regarding `CC(=O)C(C)C` [Methyl isopropyl ketone], the Solubility in water under setting [1] is reported as 60800 ppmw. Take `CCCC(C)=O` [Methyl propyl ketone]: the Solubility in water under setting [1] is 55360 ppmw. For `CCCCC=O` [Pentanal], under setting [1], the Solubility in water was 11700 ppmw. Take `CCCOC(C)=O` [Propyl acetate]: the Solubility in water under setting [2] is reported as 16787 ppmw.

Regarding `CCCOC=O` [Propyl formate], the Solubility in water under setting [3] is recorded as 22000 ppmw.
